Where a name gives a salt, the structure may show the parent alone.
These compounds were tested against T1, human recombinant 6His-Nterm SHP2 full-length (Thr2-Arg593) (Homo sapiens, UniProt Q06124) (assay: SHP2 Phosphatase Assay (DiFMUP fluorescence)). Details: SHP2 0.2 nM pre-incubated with 100 nM bi-phosphorylated activating peptide; compound 1000-0.05 nM, 30 min pre-incubation; DiFMUP 20 µM, 45 min, room temperature; 10-concentration dose-response.
T1 construct: 6His-Nterm SHP2 full-length (Thr2-Arg593, R&D system); 6His (N); purchased R&D system
T1 sequence (Q06124 2-593): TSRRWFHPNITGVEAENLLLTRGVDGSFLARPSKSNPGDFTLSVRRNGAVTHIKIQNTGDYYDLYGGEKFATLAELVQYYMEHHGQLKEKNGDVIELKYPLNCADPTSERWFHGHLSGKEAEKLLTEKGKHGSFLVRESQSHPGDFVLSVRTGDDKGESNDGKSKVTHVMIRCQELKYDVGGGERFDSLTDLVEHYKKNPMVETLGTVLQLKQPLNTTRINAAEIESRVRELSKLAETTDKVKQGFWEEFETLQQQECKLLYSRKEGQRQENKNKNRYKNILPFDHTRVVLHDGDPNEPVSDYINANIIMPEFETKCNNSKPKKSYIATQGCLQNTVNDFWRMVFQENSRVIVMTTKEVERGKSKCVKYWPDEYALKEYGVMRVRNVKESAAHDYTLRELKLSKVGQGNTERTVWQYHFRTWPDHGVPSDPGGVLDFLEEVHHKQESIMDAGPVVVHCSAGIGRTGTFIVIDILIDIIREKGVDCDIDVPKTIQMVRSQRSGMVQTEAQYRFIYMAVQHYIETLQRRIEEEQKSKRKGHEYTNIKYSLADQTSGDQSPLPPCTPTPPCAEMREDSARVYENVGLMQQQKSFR
Format: biochemical
Procedure, shortened: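 SHP2 (0.2 nM) preactivated ≥10 min with 100 nM bis-phosphorylated peptide, then 30 min with compound (10 concentrations, 1000–0.05 nM) at room temperature, pH 7.2 HEPES buffer with DTT. DiFMUP (20 µM, added solution) reacted 45 min, pervanadate-stopped; fluorescence 350/450 nm. IC50 by 4-parameter logistic fit.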

SMILES | IC50
Cc1nccc(-c2c(C)nc(N3CCC4(CC3)Cc3ccccc3[C@H]4N)c3ccnn23)c1Cl [Compound 25, (S)-1'-(7-(3-chloro-2-methylpyridin-4-yl)-6-methylpyrazolo[1,5-a]pyrazin-4-yl)-1,3-dihydrospiro[indene-2,4'-piperidin]-1-amine hydrochloride] | 6 nM
Cc1nccc(-c2c(C)nc(N3CCC4(CC3)Cc3ncccc3[C@H]4N)c3c(F)cnn23)c1Cl [Compound 144, (5S)-1'-[7-(3-chloro-2-methyl-4-pyridyl)-3-fluoro-6-methyl-pyrazolo[1,5-a]pyrazin-4-yl]spiro[5,7-dihydrocyclopenta[b]pyridine-6,4'-piperidine]-5-amine hydrochloride] | 17 nM
Cc1nc(N2CCC3(CC2)Oc2ccccc2[C@H]3N)c2ccnn2c1-c1cccc(Cl)c1Cl [Compound 19, (3R)-1'-[7-(2,3-dichlorophenyl)-6-methyl-pyrazolo [1 ,5-a]pyrazin-4-yl]spiro[3H-benzofuran-2,4'-piperidine]-3-amine] | 102 nM
Cc1nccc(-c2c(C)nc(N3CCC4(CC3)[C@H](N)c3ccccc3N4C)c3ccnn23)c1Cl [Compound 156, (3R)-1'-[7-(3-chloro-2-methyl-4-pyridyl)-6-methyl-pyrazolo[1,5-a]pyrazin-4-yl]-1-methyl-spiro[indoline-2,4'-piperidine]-3-amine] | 35 nM
Cc1nc(N2CCC3(CC2)Nc2ccccc2[C@H]3N)c2ccnn2c1-c1ccccc1F [Compound 153, (3R)-1'-[7-(2-fluorophenyl)-6-methyl-pyrazolo[1,5-a]pyrazin-4-yl]spiro[indoline-2,4'-piperidine]-3-amine hydrochloride] | 15 nM
Cc1nc(C)c(-c2c(C)nc(N3CCC4(CC3)Cc3ncccc3[C@H]4N)c3ccnn23)s1 [Compound 161, (5S)-1'-[7-(2,4-dimethylthiazol-5-yl)-6-methyl-pyrazolo[1,5-a]pyrazin-4-yl]spiro [5,7-dihydrocyclopenta[b]pyridine-6,4'-piperidine]-5-amine hydrochloride] | 29 nM
Cc1nc(N2CCC3(CC2)Oc2ncccc2[C@H]3N)c2ccnn2c1-c1cccc(Cl)c1Cl [Compound 17, (3R)-1'-[7-(2,3-dichlorophenyl)-6-methyl-pyrazolo[1,5-a]pyrazin-4-yl]spiro[3H-furo[2,3-b]pyridine-2,4'-piperidine]-3-amine] | 39 nM
COc1cc2c(cn1)CC1(CCN(c3nc(C)c(-c4ccccc4)n4nccc34)CC1)[C@@H]2N [Compound 135, (5S)-3-methoxy-1'-(6-methyl-7-phenyl-pyrazolo[1,5-a]pyrazin-4-yl)spiro[5,7-dihydrocyclopenta[c]pyridine-6,4'-piperidine]-5-amine] | 12 nM
Cc1nc(-c2c(C)nc(N3CCC4(CC3)Cc3ncccc3[C@H]4N)c3ccnn23)cs1 [Compound 158, (5S)-1'-[6-methyl-7-(2-methylthiazol-4-yl)pyrazolo[1,5-a]pyrazin-4-yl]spiro[5,7-dihydrocyclopenta[b]pyridine-6,4'-piperidine] -5-amine hydrochloride] | 47 nM
N[C@@H]1c2cccnc2CC12CCN(c1ncc(-c3ccc(F)c4cc[nH]c34)n3nccc13)CC2 [Compound 89, (5S)-1'-[7-(4-fluoro-1H-indol-7-yl)pyrazolo[1,5-a]pyrazin-4-yl]spiro[5,7-dihydrocyclopenta[b]pyridine-6,4'-piperidine] -5-amine hydrochloride] | 9 nM
Cc1ccc2c(n1)CC1(CCN(c3nc(C)c(-c4ccccc4)n4nccc34)CC1)[C@@H]2N [Compound 107, (5 S)-2-methyl-1'-(6-methyl-7-phenyl-pyrazolo[1,5-a]pyrazin-4-yl)spiro[5,7-dihydrocyclopenta[b]pyridine-6,4'-piperidine]-5-amine hydrochloride] | 12 nM
Cc1nc(N2CCC3(CC2)Cc2c(F)cccc2[C@H]3N)c2ccnn2c1-c1cnc(C)n1C [Compound 97, (1S)-1'-[7-(2,3-dimethylimidazol-4-yl)-6-methyl-pyrazolo[1,5-a]pyrazin-4-yl]-4-fluoro-spiro[indane-2,4'-piperidine]-1-amine hydrochloride] | 42 nM
Cc1nc(N2CCC3(CC2)Cc2nc(O)ccc2[C@H]3N)c2ccnn2c1-c1cccc(F)c1F [Compound 222, (5S)-5-amino-1'-[7-(2,3-difluorophenyl)-6-methyl-pyrazolo[1,5-a]pyrazin-4-yl]spiro[5,7-dihydrocyclopenta[b]pyridine-6,4'-piperidine]-2-ol hydrochloride] | 1 nM

Continued, values first:

IC50 | SMILES
4 nM | Cc1nc(N2CCC3(CC2)Cc2ncccc2[C@H]3N)c2ccnn2c1-c1ccc2c(c1)OCC2 [Compound 162, (5S)-1'-[7-(2,3-dihydrobenzofuran-6-yl)-6-methyl-pyrazolo[1,5-a]pyrazin-4-yl]spiro[5,7-dihydrocyclopenta[b]pyridine-6,4'-piperidine]-5-amine]
7 nM | Cc1cccc(-c2c(C)nc(N3CCC4(CC3)Cc3ncccc3[C@H]4N)c3ccnn23)c1F [Compound 166, (5S)-1'-[7-(2-fluoro-3-methyl-phenyl)-6-methyl-pyrazolo[1,5-a]pyrazin-4-yl]spiro[5,7-dihydrocyclopenta[b]pyridine-6,4'-piperidine]-5-amine]
3 nM | Cc1nc(N2CCC3(CC2)Cc2ncccc2[C@H]3N)c2ccnn2c1-c1ccc(F)c2cc[nH]c12 [Compound 208, (5S)-1'-[7-(4-fluoro-1H-indol-7-yl)-6-methyl-pyrazolo[1,5-a]pyrazin-4-yl]spiro[5,7-dihydrocyclopenta[b]pyridine-6,4'-piperidine]-5-amine]
9 nM | Cc1ncc(-c2c(C)nc(N3CCC4(CC3)Cc3ncccc3[C@H]4N)c3ccnn23)s1 [Compound 152, (5S)-1'-[6-methyl-7-(2-methylthiazol-5-yl)pyrazolo [1,5-a]pyrazin-4-yl]spiro[5,7-dihydrocyclopenta[b]pyridine-6,4'-piperidine] -5-amine]
5 nM | Cc1nc(N2CCC3(CC2)Cc2ncccc2[C@H]3N)c2ccnn2c1-c1ccsc1 [Compound 194, (5S)-1'-[6-methyl-7-(3-thienyl)pyrazolo[1,5-a]pyrazin-4-yl]spiro[5,7-dihydrocyclopenta[b]pyridine-6,4'-piperidine]-5-amine]
10 nM | Cc1nc(N2CCC3(CC2)Cc2ncccc2[C@H]3N)c2ccnn2c1-c1ccnc(C2CC2)c1Cl [Compound 40, (5S)-1'-[7-(3-chloro-2-cyclopropyl-4-pyridyl)-6-methyl-pyrazolo[1,5-a]pyrazin-4-yl]spiro[5,7-dihydrocyclopenta[b]pyridine-6,4'-piperidine]-5-amine]
4 nM | Cc1nc(N2CCC3(CC2)Cc2ncccc2[C@H]3N)c2ccnn2c1-c1ccc(CC#N)cc1 [Compound 189, 2-[4-[6-methyl-4-[(5S)-5-aminospiro[5,7-dihydrocyclopenta[b]pyridine-6,4'-piperidine]-1'-yl]pyrazolo[1,5-a]pyrazin-7-yl]phenyl]acetonitrile]
24 nM | Cc1ccccc1-c1c(C)nc(N2CCC3(CC2)Cc2ncccc2[C@H]3N)c2ccnn12 [Compound 52, (5S)-1'-[6-methyl-7-(o-tolyl)pyrazolo[1,5-a]pyrazin-4-yl]spiro[5,7-dihydrocyclopenta[b]pyridine-6,4'-piperidine]-5-amine]
> 1000 nM | Cc1nc(N2CCC3(CC2)Cc2ncccc2[C@H]3N)c2ccnn2c1C1CC1 [Compound 210, (5S)-1'-(7-cyclopropyl-6-methyl-pyrazolo[1,5-a]pyrazin-4-yl)spiro[5,7-dihydrocyctopenta[b]pyridine-6,4'-piperidine]-5-amine]
5 nM | Cc1nc(N2CCC3(CC2)Cc2ncccc2[C@H]3N)c2ccnn2c1-c1cccc(C(F)(F)F)c1F [Compound 174, (5S)-1'-[7-[2-fluoro-3-(trifluoromethyl)phenyl] -6-methyl-pyrazolo[1,5-a]pyrazin-4-yl]spiro[5,7-dihydrocyclopenta[b]pyridine-6,4'-piperidine]-5-amine]
30 nM | Cc1nc(N2CCC3(CC2)Cc2ncccc2[C@H]3N)c2ccnn2c1-c1cc(C(F)(F)F)nn1C [Compound 163, (5S)-1'-[6-methyl-7-[2-methyl-5-(trifluoromethyl)pyrazol-3-yl]pyrazolo[1,5-a]pyrazin-4-yl]spiro[5,7-dihydrocyclopenta[b]pyridine-6,4'-piperidine]-5-amine]
12 nM | Cc1nc(N2CCC3(CC2)Cc2ncccc2[C@H]3N)c2ccnn2c1-c1sccc1Cl [Compound 38, (5S)-1'-[7-(3-chloro-2-thienyl)-6-methyl-pyrazolo[1,5-a]pyrazin-4-yl]spiro[5,7-dihydrocyclopenta[b]pyridine-6,4'-piperidine]-5-amine]
